Assay results: PubChem BioAssay (NCI)
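1) Cells in 96-well plates. 2) Compound, 48 h, 5 concentrations. 3) Linear interpolation between surrounding doses. 4) Unreached endpoint = highest concentration. TGI: total growth inhibition.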

Assays:
Assay in all cases: NCI tumour cell line growth inhibition, 48 h
[1] = tested on: ACHN renal
[2] = tested on: HOP-92 NSCLC
[3] = tested on: KM12 colon
[4] = tested on: MDA-MB-231 breast
[5] = tested on: MDA-N
[6] = tested on: OVCAR-3 ovarian
[7] = tested on: OVCAR-4 ovarian
[8] = tested on: OVCAR-8 ovarian
[9] = tested on: SK-MEL-5 melanoma
[10] = tested on: SNB-75 CNS

SMILES	TGI [1] [µM]	TGI [2] [µM]	TGI [3] [µM]	TGI [4] [µM]	TGI [5] [µM]	TGI [6] [µM]	TGI [7] [µM]	TGI [8] [µM]	TGI [9] [µM]	TGI [10] [µM]
COc1ccc2nc(NC(=O)/C(C#N)=C/c3ccccc3)sc2c1	> 100	> 100	> 73.3	> 100	> 100	> 100	> 100	> 100	> 73.6	> 87.8
CC(C)NC(=O)OCc1c(COC(=O)NC(C)C)n(C)c2c1ccc1sccc12	> 63.8	27.3	31.2	52	42.8	36.9	36.5	> 100	26.3	32.4
CN(/N=C1\C(=O)Nc2ccccc21)c1ccccc1	> 100	> 100	> 100	62.5	> 100	> 100	> 100	> 100	> 100	> 100
c1ccc(C2=NC3OC2c2ccccc23)cc1 (centres undefined)	> 10	> 10	> 10	> 10	> 10	> 10	> 10	> 10	> 10	> 10
[N-]=[N+]=CC(=O)C1CCCN1C(=O)c1ccccc1 (centres undefined)	> 10	> 10	> 10	> 10	> 10	> 10	> 10	> 10	> 10	8.26
Cc1c(C)n(-c2ccccc2)c2nc(S(C)=O)nc(S(C)=O)c12 (centres undefined)	18.5	4.62	28.1	17.3	13.6	6.77	17.4	12.4	6.1	23.3
Cc1ccc2c(c1C)C(=O)C1(Cc3cc4c(cc3C1=O)CCC4)C2 (centres undefined)	> 100	> 100	> 100	> 100	> 100	> 100	> 100	> 100	> 100	> 100
O=c1[nH]c(NCc2ccncc2)nc2nc[nH]c12	> 100	> 100	> 100	> 100	> 100	> 100	> 100	> 100	> 100	> 100
CC1(C)CC(=O)C2=C(C1)C(c1ccccc1Cl)C1C(=O)CC(C)(C)CC1(O)O2 (centres undefined)	> 100	> 100	> 100	> 100	> 100	> 100	> 100	> 100	> 100	> 100
CN(C)CCN(c1ccccn1)c1ccccn1	> 100	> 100	> 100	> 100	> 100	> 100	> 100	> 100	> 100	> 100
Cc1nnc2n(c1=O)CCCN2C	> 100	> 100	> 100	> 100	> 100	> 100	> 100	> 100	> 100	> 100
C[C@@H]1CC[C@@]2(C)C(C(=O)O)=CCCC2[C@@]1(C)CC(=O)c1ccoc1 (some centres undefined)	> 25	> 25	> 25	> 25	> 25	> 25	> 25	> 25	> 25	> 25
CC(C)C(Br)CCC1=CCC(Br)(Br)C1 (centres undefined)	30.6	19.5	27.5	20.7	10.4	25.7	24.2	–	18.3	23.3
CC(=O)O[C@@H](c1nccn1Cc1ccccc1)[C@H]1OC(C)(C)O[C@@H]1[C@H]1COC(C)(C)O1	> 100	> 100	> 100	> 100	> 100	> 100	> 100	> 100	> 100	> 100
O=C1C=CC2(O[C@H](c3ccccc3)[C@@H](c3ccccc3)O2)[C@H](Sc2ccccc2O)C1	1.07	1.32	6.45	2.22	1.13	1.51	2.43	0.217	2.22	8.16
CCOC(=O)CSc1nc(N)c2c(-c3ccccc3)c3c(nc2n1)CCCC3	> 100	> 100	> 100	> 100	> 100	> 100	> 100	> 100	> 100	> 100
